The numbers were not newly measured in PMC3689924 (Pharmacology, 2012), which cites them from elsewhere.

For the data set the following is noted: cited from earlier work.

`COC(=O)c1cnc2n1CCc1ccccc1C2=C1CCN(CCc2ccc(OCc3ccc4ccccc4n3)cc2)CC1` [laniquidar]: the “increase in AUC with increasing dose” value was “greater than proportional increases in AUC”.

Take `O[C@@H](COc1cccc2ncccc12)CN1CCN([C@@H]2c3ccccc3[C@@H]3[C@H](c4ccccc42)C3(F)F)CC1` [zosuquidar]: the “increase in AUC with increasing dose” value is “greater than proportional increases in AUC”.
